The source of these data is patent US20220217999A1, “METHOD FOR PROTECTING PROTEIN FROM HEAT DAMAGE AND REDUCING RUMEN DEGRADABILITY OF METHIONINE” (AJINOMOTO CO., INC., priority 2019, published 2022).

Like-named read-outs stand apart in the source and are kept apart here.

For this assay the following is noted: for 16 hr. RUP, % of CP / Calculated IAP (intestinally available protein), g/100 g distillers grains / RUP digestibility, g/100 g RUP / RUP, % of DG Protein / Undigested CP, % of CP / Undigested CP, % of feed DM: 0.5 h 128° C. autoclave. The procedure:
Using a sample of wet distillers grains (“DG”) was obtained from a commercial ethanol plant, treatments were applied in duplicates. The DG was treated with the three levels of DL-methionine shown in Table 1 and heated in an autoclave for 0.5 hour at 128° C. Following heat treatment, samples were dried in a forced oven set at 40° C. Dried samples were composited within treatment and analyzed for RUP and undigested total tract protein using a standard method.

With `CSCCC(N)C(=O)O` (racemic) [DL-Methionine], for the setting “1.0 wt. % DL-Methionine added to distillers grains”, the “16 hr. RUP, % of CP” value is recorded as 69.2 % of CP. For the same compound, where the note is “1.0 wt. % DL-Methionine”, the “Calculated IAP (intestinally available protein), g/100 g distillers grains” value (shortened to “Calculated IAP”) is recorded as 15.7 g/100 g distillers grains; the “RUP digestibility, g/100 g RUP” value was found to be 72.1 g/100 g RUP; the “RUP, % of DG Protein” value is 72.8 % of DG Protein; the “Undigested CP, % of CP” value is listed as 19.3 % of CP. The “Undigested CP, % of feed DM” value (1.0 wt. % DL-Methionine) is recorded as 6.02 % of feed DM. Besides, the “16 hr. RUP, % of CP” value (1.5 wt. % DL-Methionine added to distillers grains) is reported as 71.2 % of CP. Besides, where the note is “1.5 wt. % DL-Methionine”, the “Calculated IAP” value is listed as 15.2 g/100 g distillers grains; the “RUP digestibility, g/100 g RUP” value worked out at 67.8 g/100 g RUP; the “RUP, % of DG Protein” value is given as 74.8 % of DG Protein; the “Undigested CP, % of CP” value is listed as 22.9 % of CP. Further, the “Undigested CP, % of feed DM” value (1.5 wt. % DL-Methionine) is 7.08 % of feed DM. The “calculated digestibility of RUP, higher compared with Control” value (2% DL-methionine) is recorded as 13.9%. For the same compound, the “total metabolically available protein, higher compared with Control” value (2% DL-methionine sample) stood at 17%. For the same compound, the “16 hr. RUP, % of CP” value (2.0 wt. % DL-Methionine added to distillers grains) was 67.2 % of CP. Also, for the setting “2.0 wt. % DL-Methionine”, the “Calculated IAP” value is 16.0 g/100 g distillers grains; the “RUP digestibility, g/100 g RUP” value was found to be 72.7 g/100 g RUP; the “RUP, % of DG Protein” value is reported as 73.3 % of DG Protein; the “Undigested CP, % of CP” value is on record as 18.3 % of CP. The “Undigested CP, % of feed DM” value (2.0 wt. % DL-Methionine) is listed as 5.85 % of feed DM. Besides, the “total un-digested protein, lower compared with Control” value (highest level of DL-methionine) is 28%.
